# Legend:
# Format in all cases: in vivo
# APP/PS1 mouse [1] = assay: Amyloid-β and tau deposition by thioflavin S / immunofluorescence staining in brain cortex and hippocampus; details: 50 mg/kg intraperitoneally 3 times a week for 2 months, compared to APP/PS1 mouse (PBS)
# Text: (§1) A mouse experiment was approved by the Kyungpook National University Institutional Animal Care and Use Committee (IACUC). As an animal model of neurodegenerative disease (particularly, Alzheimer's disease), a transgenic mouse line overexpressing APPswe (hAPP695swe) and PS1 (presenilin-1M146V) based on a C57BL/6 mouse (Charles River, UK) was used. [hereinafter, APP/PS1 mouse (denoted by AD), GlaxoSmithKline Co., Ltd.]
# (§2) To confirm a therapeutic effect of the autophagy enhancing compound obtained in <Example 1>, an experimental substance was administered to the animal model according to the experimental outline (schedule) illustrated in FIG. 1. Specifically, PBS or the autophagy enhancing compound was intraperitoneally injected into a 6.5-month-old mouse 3 times a week at a dose of 50 mg/kg. After two months of the injection of the autophagy enhancing compound, behavioral analysis was performed, and the brain tissue of the mouse was used as a sample after the behavioral analysis (i.e., at 9.5 […] of mouse) (see FIG. 1).
# After immobilization of the mouse's cerebrum and hippocampus, 0.5% thioflavin S (Sigma-Aldrich), anti-20G10 against Aβ42 (mouse, 1:1000) and anti-G30 against A1340 (rabbit, 1:1000), anti-GFAP (rabbit, 1:500, DAKO) and anti-Iba-1 (rabbit, 1:500, WAKO) were incubated together. The sites were analyzed using a confocal laser scanning microscope or an Olympus BX51 microscope equipped with Fluoview SV1000 imaging software (Olympus FV1000, Japan). A percentage of an area of a stained area to an area of total tissues was quantified and analyzed by using Metamorph software (Molecular Devices).
# In order to determine whether the aforementioned autophagy enhancing compound had effects for prevention and treatment on neurodegenerative disease, the effect of the compound on an Alzheimer's model was representatively evaluated.
# First, an amyloid-β (Aβ) profile of an Alzheimer's lesion and the deposition degree of tau protein were confirmed. First, the cerebral cortex and hippocampus regions of the mouse were stained with thioflavin S (ThioS) according to a known method to confirm the deposition degree of fibrillar amyloid-β. In addition, immunofluorescence staining of Aβ40, Aβ42, and AT8 was performed to confirm the deposition degree of amyloid-β and tau protein.
# APP/PS1 mouse [2] = assay: Morris water maze (MWM) test; details: 50 mg/kg intraperitoneally 3 times a week for 2 months, FIGS. 5A to 5C
# Text: as §1, §2
# (§3) In order to confirm potential effects on learning and memory, Morris water maze (MWM) and fear conditioning tests were performed. In the MWM, the mouse learned a task 4 times a day for 10 days, a platform was removed on day 11, and a probe trial was performed. […]
# APP/PS1 mouse [3] = assay: Fear conditioning test; details: 50 mg/kg intraperitoneally 3 times a week for 2 months, FIG. 5D
# Text: as §1, §2, §3
# APP/PS1 mouse [4] = assay: Astrocyte (GFAP) and microglia (Iba-1) immunofluorescence in brain; details: 50 mg/kg intraperitoneally 3 times a week for 2 months, compared with APP/PS1 mouse
# Text: as §1
# To confirm a therapeutic effect of the autophagy enhancing compound obtained in <Example 1>, an experimental substance was administered to the animal model according to the experimental outline (schedule) illustrated in FIG. 1. Specifically, PBS or the autophagy enhancing compound was intraperitoneally injected into a 6.5-month-old mouse 3 times a week at a dose of 50 mg/kg. […]
# After immobilization of the mouse's cerebrum and hippocampus, 0.5% thioflavin S (Sigma-Aldrich), anti-20G10 against Aβ42 (mouse, 1:1000) and anti-G30 against A1340 (rabbit, 1:1000), anti-GFAP (rabbit, 1:500, DAKO) and anti-Iba-1 (rabbit, 1:500, WAKO) were incubated together. The sites were analyzed using a confocal laser scanning microscope or an Olympus BX51 microscope equipped with Fluoview SV1000 imaging software (Olympus FV1000, Japan). A percentage of an area of a stained area to an area of total tissues was quantified and analyzed by using Metamorph software (Molecular Devices). […]
# APP/PS1 mouse [5] = assay: Real-time quantitative PCR of inflammatory cytokines in brain tissue; details: 50 mg/kg intraperitoneally 3 times a week for 2 months, brain mRNA, FIG. 6C
# Text: as §1, §2
# A real-time quantitative PCR method was used to measure the expression levels of inflammatory response-related cytokines (TNF-α, IL-1β, and IL-6). Total RNA was extracted from the brain tissue using an RNeasy Plus mini kit (Qiagen, Korea, Ltd), and cDNA was synthesized from a total of 5 μg of RNA using a kit from Clontech (Mountain View, Calif.). In addition, by using a Corbett research RG-6000 real-time PCR instrument, real-time quantitative PCR was performed by setting 95° C., 10 minutes; 95° C., 10 seconds; and 58° C., 15 seconds as one cycle and repeating 40 cycles.
# APP/PS1 mouse [6] = assay: Western blotting of autophagy-related proteins in brain tissue
# Text: as §1, §2
# Expression of the following genes was analyzed using Western blotting. First, antibodies against LC3, beclin-1, and p62 [all, purchased from cell signaling Technologies], cathepsin D (R&D systems) and β-actin (Santa Cruz) were used, and density quantification was performed by using ImageJ software (US National Institutes of Health).
# In order to confirm how the aforementioned autophagy enhancing compound (in particular, 5-methoxy-4-(phenylsulfonyl)-2-(4-(trifluoromethyl)phenyl)oxazole) actually act in an autophagy-related pathway in vivo, conversion of LC3-I to LC3-II, and expression levels of beclin-1, cathepsin D and p62 were confirmed through a Western blotting experiment in brain tissue samples of 9.5-month-old WT, APP/PS1 (untreated group), and an APP/PS1 mouse injected with the autophagy enhancing compound.
# [7] = 9.5-month-old APP/PS1 mouse, 50 mg/kg intraperitoneally 3 times a week for 2 months, versus increased level in APP/PS1 mouse
structure (smiles),measurement,setting,value
"COc1oc(-c2ccc(C(F)(F)F)cc2)nc1S(=O)(=O)c1ccccc1 [autophagy enhancing compound, 5-methoxy-4-(phenylsulfonyl)-2-(4-(trifluoromethyl)phenyl)oxazole]",deposition of fibrillar Aβ (thioflavin S),"APP/PS1 mouse [1]; cerebral cortex and hippocampus, FIG. 2",significantly low
same,deposition of Aβ40,"APP/PS1 mouse [1]; cortex and hippocampus, FIG. 3A",significantly low
same,deposition of Aβ42,"APP/PS1 mouse [1]; cortex and hippocampus, FIG. 3B",significantly low
same,deposition of tau protein (AT8),"APP/PS1 mouse [1]; cortex and hippocampus, FIG. 4",significantly low
same,"impairment in spatial memory, cognition and memory formation (Morris water maze)",APP/PS1 mouse [2],significantly improved
same,memory in fear conditioning test (contextual and tone tasks),APP/PS1 mouse [3],remarkable memory improvement effect
same,activity of astrocytes (GFAP),APP/PS1 mouse [4]; FIG. 6A,significantly reduced
same,activity of microglia (Iba-1),APP/PS1 mouse [4]; FIG. 6B,significantly reduced
same,gene expression of inflammatory cytokine IL-1β,APP/PS1 mouse [5],restored to a normal level
same,gene expression of inflammatory cytokine IL-6,APP/PS1 mouse [5],restored to a normal level
same,gene expression of inflammatory cytokine TNF-α,APP/PS1 mouse [5],restored to a normal level
same,level of LC3-II,"APP/PS1 mouse [6]; 9.5-month-old APP/PS1 mouse, 50 mg/kg intraperitoneally 3 times a week for 2 months, FIG. 7",decreased to a level similar to WT
same,expression level of cathepsin D,APP/PS1 mouse [6]; [7],decreased
same,expression level of p62,APP/PS1 mouse [6]; [7],decreased
same,expression of beclin-1,"APP/PS1 mouse [6]; 9.5-month-old WT, APP/PS1 and injected APP/PS1 mouse, FIG. 7",no large difference in the three groups

# Reference: US20210070718A1, “NOVEL PHENYLSULFONYL OXAZOLE DERIVATIVE AND USE THEREOF” (priority 2018, published 2021)
